{"source": "patent US20110112053A1", "about": "“PHARMACOLOGICAL TARGETING OF VASCULAR MALFORMATIONS” (University of Utah Research Foundation, priority 2008, published 2011)", "key": {"CCM2-depleted HMVECs [1]": {"system": "CCM2-depleted HMVECs", "assay": "Phalloidin staining for actin stress fibers", "format": "cell-based, human", "protocol": "Immunofluorescent Cell Staining. Glass chamber slides were coated with human fibronectin (Biomedical Technologies, Inc.), and transfected cells were seeded at 50,000 cells per well. For the RhoA and ROCK experiment, cells were treated four days after seeding with 40 μg/mL of cell-permeable C3 transferase (Cytoskeleton, Inc.) or 20 μM Y-27632 for 4 hours. For the simvastatin experiment, cells were treated three days after seeding with 40 μM simvastatin (Calbiochem) or equivalent amounts of ethanol in growth media for 24 hours. Cells were fixed in 4% formaldehyde and incubated with an antibody against β-catenin (BD Biosciences). Fluorescent secondary antibody (Molecular Probes) was used to visualize β-catenin staining Actin cytoskeleton was visualized using fluorescently-conjugated phalloidin (Molecular Probes). Images were obtained with an Olympus FV300 confocal microscope."}, "CCM2-depleted HMVECs [2]": {"system": "CCM2-depleted HMVECs", "assay": "Transendothelial electrical resistance (barrier function)", "format": "cell-based, human", "conditions": "C3 transferase 1 μg ml^−1", "protocol": "Transendothelial Resistance. An electrode culture array (Applied Biophysics) was coated with human fibronectin and transfected cells were seeded at 50,000 cells per well. Three days after seeding, cells were serum-starved in endothelial basal medium-2 with 0.2% BSA overnight. Transendothelial resistance was measured with an electric cell-substrate impedance sensing system (Applied Biophysics). Cell-permeable C3 transferase (1 μg ml^−1) was added to inhibit RHOA. For basal resistance, 40 wells each were measured for Rho inhibition experiments, six control wells each and ten C3 transferase wells each were measured."}, "mice": {"system": "mice", "conditions": "mouse, in vivo"}, "JNK": {"system": "JNK", "assay": "Immunoblot for phosphorylated and total JNK", "format": "cell-based, human", "conditions": "10 μM Y-27632 for 30 min prior to cell lysis", "protocol": "MAPK Profiling. siRNA transfected cells were lysed in RIPA buffer (50 mM Tris pH 7.4, 150 mM NaCl, 1% NP-40) supplemented with protease and phosphatase inhibitors. Lysates were then analyzed by western blotting. Antibodies to phospho-JNK and total JNK were from Santa Cruz Biotechnology. Antibodies to phospho-ERK, phospho-p38, phospho-MKK4, phospho-MKK7, total ERK, total p38, total MKK4, and total MKK7 were from Cell Signaling Technology. The effect of ROCK inhibitor on JNK was tested by treating cells with 10 μM Y-27632 for 30 min prior to cell lysis. The effect of simvastatin on JNK was determined by treating cells with 10 μM simvastatin for 24 h prior to cell lysis."}, "[3]": {"target": "geranylgeranyltransferase I (GGTase I) (Homo sapiens, UniProt P53609)", "conditions": "cited from earlier work"}}}
{"compound": "C3 transferase", "values": [{"measurement": "actin stress fiber response", "setting": "CCM2-depleted HMVECs [1]; 40 μg/mL cell-permeable C3 transferase, 4 hours", "result": "blocked the stress fiber response"}, {"measurement": "barrier function (transendothelial resistance)", "setting": "CCM2-depleted HMVECs [2]", "result": "significantly rescue barrier function"}]}
{"compound": "C[C@@H](N)[C@H]1CC[C@H](C(=O)Nc2ccncc2)CC1", "note": "[Y-27632, (R)-(+)-trans-N-(4-Pyridyl)-4-(1-aminoethyl)-cyclohexanecarboxamide]", "values": [{"measurement": "tolerability in mice", "setting": "mice", "result": "do not tolerate"}, {"measurement": "actin stress fiber response", "setting": "CCM2-depleted HMVECs [1]; 20 μM Y-27632, 4 hours", "result": "blocked the stress fiber response"}, {"measurement": "activation (phosphorylation) of JNK", "setting": "JNK", "result": "decreased the activation of JNK"}]}
{"compound": "CC(C)C[C@H](NC(=O)c1ccc(NCc2c[nH]cn2)cc1-c1cccc2ccccc12)C(=O)O.O=C(O)C(F)(F)F", "note": "[GGTI-2133, N-[[4-(Imidazol-4-yl)methylamino]-2-(1-naphthyl)benzoyl]leucine trifluoroacetate salt]", "values": [{"measurement": "selectivity for GGTase I over farnesyltransferase", "setting": "[3]", "result": 140, "unit": "fold"}]}
